This assay has as its system Recombinant human cathepsin A. In words: Cathepsin A inhibitory activity (Bodipy FL-bradykinin substrate, microfluidic capillary electrophoresis). The class given is biochemical. As to conditions: read-out: CATH A IC50. How it is done:
Pharmacological Tests a) Cathepsin a Inhibitory Activity
Recombinant human cathepsin A (residues 29-480, with a C-terminal 10-His tag; R&D Systems, #1049-SE) was proteolytically activated with recombinant human cathepsin L (R&D Systems, #952-CY). Briefly, cathepsin A was incubated at 10 μg/ml with cathepsin L at 1 μg/ml in activation buffer (25 mM 2-(morpholin-4-yl)-ethanesulfonic acid (MES), pH 6.0, containing 5 mM dithiothreitol (DTT)) for 15 min at 37° C.
The activated cathepsin A was diluted in assay buffer (25 mM MES, pH 5.5, containing 5 mM DTT) and mixed with the test compound (dissolved in assay buffer containing (v/v) 3% DMSO) or, in the control experiments, with the vehicle in a multiple assay plate. After incubation for 15 min at room temperature, as substrate then bradykinin carrying an N-terminal ®Bodipy FL (4,4-difluoro-5,7-dimethyl-4-bora-3a,4a-diaza-s-indacene-3-propionyl) label (JPT Peptide Technologies GmbH; dissolved in assay buffer) was added to the mixture. The final concentration of cathepsin A was 833 ng/ml and the final concentration of labeled bradykinin 2 μM. After incubation for 15 min at room temperature the reaction was stopped by the addition of stop buffer (130 mM 2-(4-(2-hydroxy-ethyl)-piperazin-1-yl)-ethanesulfonic acid, pH 7.4, containing (v/v) 0.013% ®Triton X-100, 0.13% Coating Reagent 3 (Caliper Life Sciences), 6.5% DMSO and 20 μM ebelactone B (Sigma, # E0886)).
Uncleaved substrate and product were then separated by a microfluidic capillary electrophoresis on a LabChip® 3000 Drug Discovery System (12-Sipper-Chip; Caliper Life Sciences) and quantified by determination of the respective peak areas. Substrate turnover was calculated by dividing product peak area by the sum of substrate and product peak areas, and the enzyme activity and the inhibitory effect of the test compound thus quantified.

What is called IC50 is the concentration at which inhibition is half-maximal. For `COc1cccc(OC)c1-c1cc(Cl)cc(C(CC(=O)O)c2nnc(C)o2)c1` (stereo not drawn) [compound 154], the IC50 was 5 nM.

On to `COc1cc(C)cc(OC)c1-c1cc(Cl)cc(C(CC(=O)O)c2nnc(C)o2)c1` (stereo not drawn) [compound 155], for which the IC50 stood at 8 nM.

Regarding `COc1cccc(C#N)c1-c1cc(Cl)cc(C(CC(=O)O)c2nnc(C)o2)c1` (stereo not drawn) [compound 156], the IC50 came to 104 nM.

With `COc1ccc2c(c1-c1cc(Cl)cc(C(CC(=O)O)c3nnc(C)o3)c1)OC(C)(C)C2` (stereo not drawn) [compound 157], the IC50 was found to be 17 nM.

Regarding `Cc1nnc(C(CC(=O)O)c2cc(Cl)cc(-c3ccccc3OC(F)(F)F)c2)o1` (stereo not drawn) [compound 158], the IC50 stood at 89 nM.

With `COc1ccc(C(C)C)cc1-c1cc(F)cc(C(CC(=O)O)c2nnc(C)o2)c1` (stereo not drawn) [compound 160], the IC50 was 44 nM.

With `COc1cccc(C#N)c1-c1cc(F)cc(C(CC(=O)O)c2nnc(C)o2)c1` (stereo not drawn) [compound 163], the IC50 worked out at 446 nM.

As to `Cc1nnc(C(CC(=O)O)c2cc(F)cc(-c3ccccc3OC(F)(F)F)c2)o1` (stereo not drawn) [compound 165], the IC50 was 231 nM.

Take `COc1ccc(Cl)cc1-c1cc(F)cc(C(CC(=O)O)c2nnc(C)o2)c1` (stereo not drawn) [compound 166]: the IC50 came out at 89 nM.

`COc1cccc(CO)c1-c1cc(F)cc(C(CC(=O)O)c2nnc(C)o2)c1` (stereo not drawn) [compound 167]: the IC50 came out at 400 nM.

Turning to `COc1ccc(OC(F)(F)F)cc1-c1cc(F)cc(C(CC(=O)O)c2nnc(C)o2)c1` (stereo not drawn) [compound 168], the IC50 was found to be 165 nM.

Regarding `COc1ccc(C)cc1-c1cc(Cl)cc(C(CC(=O)O)c2nnc(C)o2)c1` (stereo not drawn) [compound 169], the IC50 stood at 17 nM.

Turning to `COc1ccc(S(C)(=O)=O)cc1-c1cc(Cl)cc(C(CC(=O)O)c2nnc(C)o2)c1` (stereo not drawn) [compound 170], the IC50 stood at 109 nM.

In the case of `COc1cccc(C(=O)N2CCCC2)c1-c1cc(Cl)cc(C(CC(=O)O)c2nnc(C)o2)c1` (stereo not drawn) [compound 171], the half-maximal inhibitory concentration (IC50) worked out at 4210 nM.

With `COc1ccc(-c2cc(Cl)cc(C(CC(=O)O)c3nnc(C)o3)c2)c(OC)c1` (stereo not drawn) [compound 172], the IC50 was found to be 33 nM.

Regarding `COc1cccc(C(=O)N2CCCC2)c1-c1cc(F)cc(C(CC(=O)O)c2nnc(C)o2)c1` (stereo not drawn) [compound 174], the IC50 amounted to 5260 nM.

Take `CCOc1ccccc1-c1cc(F)cc(C(CC(=O)O)c2nnc(C)o2)c1` (stereo not drawn) [compound 175]: the IC50 was 104 nM.

As to `COc1ccccc1-c1cc(Cl)cc(C(CC(=O)O)c2nnc(C)o2)c1` (stereo not drawn) [compound 176], the IC50 amounted to 10 nM.

With `CCOc1ccccc1-c1cc(Cl)cc(C(CC(=O)O)c2nnc(C)o2)c1` (stereo not drawn) [compound 177], the IC50 turned out to be 24 nM.

`COc1ccc(S(C)(=O)=O)cc1-c1cc(F)cc(C(CC(=O)O)c2nnc(C)o2)c1` (stereo not drawn) [compound 178]: the IC50 amounted to 588 nM.

As to `COc1cccc(F)c1-c1cc(F)cc(C(CC(=O)O)c2nnc(C)o2)c1` (stereo not drawn) [compound 179], the concentration for half-maximal inhibition (IC50) was 67 nM.

As for `COc1ccc(OC)c(-c2cncc(C(CC(=O)O)c3nnc(C)o3)c2)c1` (stereo not drawn) [compound 180], the IC50 amounted to 3520 nM.

Consider `COc1ccc(C)cc1-c1cncc(C(CC(=O)O)c2nnc(C)o2)c1` (stereo not drawn) [compound 181], for which the IC50 was determined as 2220 nM.

Take `COc1ccc(C(C)(C)C)cc1-c1cncc(C(CC(=O)O)c2nnc(C)o2)c1` (stereo not drawn) [compound 182]: the IC50 came out at 452 nM.

Consider `COc1ccc(C(C)C)cc1-c1cncc(C(CC(=O)O)c2nnc(C)o2)c1` (stereo not drawn) [compound 183], for which the IC50 turned out to be 1030 nM.

On to `COc1cccc(OC)c1-c1cncc(C(CC(=O)O)c2nnc(C)o2)c1` (stereo not drawn) [compound 184], for which the IC50 was 160 nM.

As to `COc1ccc(C(C)C)cc1-c1cccc([C@@H](CC(=O)O)c2nnc(C)o2)c1` [compound 185], the IC50 is 27 nM.

With `COc1cc(C)cc(OC)c1-c1cncc(C(CC(=O)O)c2nnc(C)o2)c1` (stereo not drawn) [compound 186], the IC50 is 343 nM.

Regarding `COc1ccccc1-c1cncc(C(CC(=O)O)c2nnc(C)o2)c1` (stereo not drawn) [compound 190], the IC50 was determined as 5800 nM.

Regarding `COc1ccc(Cl)cc1-c1cncc(C(CC(=O)O)c2nnc(C)o2)c1` (stereo not drawn) [compound 191], the IC50 is 3910 nM.

The values are drawn from patent US9150526B2, “Biaryl-propionic acid derivatives and their use as pharmaceuticals” (SANOFI, priority 2013, dated 2015).
